Experiments:
[1] = test system: four types of lung cancer cell strains (AS2, H157, H460, H1650); assay: MTT cell activity test, four cell strains together; format: cell-based; details: 48 hours
Text: To measure the ionized LY, PLAG nanoparticles (SF-NPs), and SF-LY NPs, PLGA NPs are applied to four selected types of lung cancer cell strains including AS2 (PTEN null), H157 (PI3KCA, PTEN null), H460 (PI3KCA) and H1650 (PTEN null) in this preferred embodiment, and different concentrations are used to process the ionized LY or SF-LY NPs and a MTT testing method is used to measure the cell activity, and the experiment procedure is described in details as follows:
The cells are inoculated in 96-hole culture boards (each hole has 5×10^3 cells) and cultured by 5% of CO2 at 37[…] till the next day. In four types of different cells, different doses of SF NPs, LY or SF-LY NPs are added and processed for 48 hours, and then a stock solution (with a content of 5 mg/ml in PBS) of a MTT agent at 37° C. is added to the 96-hole culture boards containing different processing drugs and wait for 4 fours before centrifuging the culture boards at 1200 rpm for 5 minutes, and after adding DMSO (capable of dissolving and precipitating products produced by the reaction of MTT and cells) for 5 minutes, the suspension is moved to a new ELISA board, and an ELISA reader (Varioskan, Thermo Electron) is used to measure the light absorption by 490 nm. […]

[2] = test system: H157 (PI3KCA, PTEN null) lung cancer cell strain; assay: MTT cell activity test; format: cell-based; details: H157, higher dosage, 48 hours
Text: To measure the ionized LY, PLAG nanoparticles (SF-NPs), and SF-LY NPs, PLGA NPs are applied to four selected types of lung cancer cell strains including AS2 (PTEN null), H157 (PI3KCA, PTEN null), H460 (PI3KCA) and H1650 (PTEN null) in this preferred embodiment, and different concentrations are used to process the ionized LY or SF-LY NPs and a MTT testing method is used to measure the cell activity, and the experiment procedure is described in details as follows: The cells are inoculated in 96-hole culture boards (each hole has 5×10^3 cells) and cultured by 5% of CO2 at 37[…] till the next day. In four types of different cells, different doses of SF NPs, LY or SF-LY NPs are added and processed for 48 hours, and then a stock solution (with a content of 5 mg/ml in PBS) of a MTT agent at 37° C. is added to the 96-hole culture boards containing different processing drugs and wait for 4 fours before centrifuging the culture boards at 1200 rpm for 5 minutes, and after adding DMSO (capable of dissolving and precipitating products produced by the reaction of MTT and cells) for 5 minutes, the suspension is moved to a new ELISA board, and an ELISA reader (Varioskan, Thermo Electron) is used to measure the light absorption by 490 nm.

[3] = test system: PC14PE6/AS2 cells tumor; assay: AS2 tumor model in nude mice, injection in the tumor; format: in vivo, Balb/c female nude mice; details: 1 mg/kg, injected in the tumor three times a week for two weeks
Method: Balb/c female nude mice were obtained from National Laboratory Animal Center, Taiwan. Mice of 6˜8 weeks old are used. The mice are randomly divided into four groups, and situated in the same environment with controlled tempeature, humidity and 12 h-light/dark cycle, and the controlled environmental conditions follows the environmental conditions for animal breeding set forth by National Cheng Kung University. The balb/c immunodeficient mice are innoculated with PC14PE6/AS2 cells (1×10^6 cells/1004 of PBS) by the subcutaneous inoculation method. If the tumor size is approximately equal to 50-60 cubic millimeters, the experiment starts taking place. […] The tumor size is measured by a caliper and a standard tumor volume measurement method (Volume=Long Axis×Short Axis^2×0.5). […]
After the procedure as shown in FIG. 5 takes place, the body weight of the mice is measured in every two other days to check whether there is a loss of weight. […] The survival rate is determined by the number of days when a natural death of each group of mice occurs or the tumor reaches a size of 4000 mm^3.

Q: Which “toxicity of the cells” value [1] does the source give for `O=c1cc(N2CCOCC2)oc2c(-c3ccccc3)cccc12` [LY294002, 2-(4-Morpholinyl)-8-phenyl-4H-1-benzopyran-4-one] here?
A: The value was “slight toxicity”.

Q: What about the “toxicity to H157 cells” value [2] of the same molecule?
A: Its value is “slight toxicity”.

Q: And the growth of tumors [3]?
A: Its growth of tumors is “insufficient to reduce the growth of tumors”.

Q: What about the “tumor size increase relative to start” value ([3]; after 12˜14 days) of the same molecule?
A: The value was “approximately 40 times”.

— patent US20140161891A1, “COMPOSITION OF PI3K INHIBITOR AND USE THEREOF” (priority 2012, published 2014)
